Some test systems named below: HOP-92 NSCLC; HS 578T breast; SF-295 CNS; SNB-75 CNS; 786-0 renal; SK-OV-3 ovarian; SN12C renal; MALME-3M melanoma; U251 CNS; OVCAR-5 ovarian.
Holding throughout (assay): inhibition of tumour cell growth, NCI panel, 48 h

Values joined by “and” are separate entries in the source; they are usually repeats but may differ in a detail not shown here. Identical values can stand only once.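 Protocol summary: plate cells (96-well), add compound at 5 concentrations, incubate 48 h, interpolate endpoints linearly. Here, GI50 denotes the concentration required for 50% inhibition of growth. TGI marks complete inhibition of growth.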

Take `CC(C)(C)c1ccc(S(=O)(=O)N[C@H]2CC[C@H]3[C@@H]4CCc5cc(O)ccc5[C@H]4CC[C@]23C)cc1`: the GI50 was 1.53 µM in the assay with HOP-92 NSCLC; 2.39 µM in the assay on HS 578T breast; 1.66 µM with SF-295 CNS; 2.08 µM with SNB-75 CNS; 2.19 µM with 786-0 renal; 3.12 µM with SK-OV-3 ovarian. For the same compound, the GI50 was 1.76 µM in the assay with SN12C renal, 2.78 µM in the assay on MALME-3M melanoma, 1.89 µM in the assay on U251 CNS and 2.08 µM in the assay with OVCAR-5 ovarian. Further, the TGI was found to be 4.2 µM in the assay on HOP-92 NSCLC; 6.98 µM with HS 578T breast; 3.16 µM in the assay with SF-295 CNS; 6.38 µM with SNB-75 CNS; 5.02 µM with 786-0 renal; 8 µM with SK-OV-3 ovarian. For the same compound, the TGI is 3.55 µM in the assay on SN12C renal, 7.13 µM with MALME-3M melanoma, 4.45 µM in the assay with U251 CNS and 4.2 µM in the assay on OVCAR-5 ovarian.

Regarding `CC(C)(C)NCCC(O)c1cc(C(F)(F)F)nc2c(C(F)(F)F)cccc12` (centres undefined), the TGI in the assay on HOP-92 NSCLC worked out at 26.2 µM; in the assay on HS 578T breast, 34.4 µM; with SF-295 CNS, 22.6 µM; in the assay on SNB-75 CNS, 26.5 µM; with 786-0 renal, 19.6 µM; in the assay on SK-OV-3 ovarian, 30.3 µM. In addition, the TGI in the assay on SN12C renal worked out at 15.5 µM; with MALME-3M melanoma, 27.2 µM; in the assay with U251 CNS, 20.2 µM; with OVCAR-5 ovarian, 29.3 µM.

As for `CC[C@@]1(OC(=O)CN(C)C)C(=O)OCc2c1cc1n(c2=O)Cc2cc3ccccc3nc2-1`, the GI50 is 0.216 µM in the assay with HOP-92 NSCLC; 3.53 µM in the assay on HS 578T breast; less than 0.0127 µM in the assay on SF-295 CNS; 0.0475 µM with SNB-75 CNS; 0.123 µM in the assay with SK-OV-3 ovarian; 0.293 µM in the assay with MALME-3M melanoma. Moreover, the values for the GI50 in the assay with U251 CNS and in the assay with OVCAR-5 ovarian were less than 0.0175 µM and 0.184 µM, respectively. The TGI was 0.944 µM and 2.19 µM in the assay with HOP-92 NSCLC; more than 100 µM in the assay with HS 578T breast; 0.673 µM and 0.938 µM in the assay on SF-295 CNS; 5.8 µM and 4.3 µM with SNB-75 CNS; 1.11 µM and 0.125 µM in the assay with 786-0 renal; 2.88 µM in the assay with SK-OV-3 ovarian. Further, the TGI in the assay on SN12C renal is 4.03 µM and 0.892 µM; in the assay with MALME-3M melanoma it was 4.96 µM and 4.89 µM; in the assay on U251 CNS it was 0.958 µM and 0.425 µM; with OVCAR-5 ovarian it was 2.93 µM and 5.92 µM.

For the compound `Nc1ccc2c(c1)CN1C(=O)c3ccccc3C1=N2`, the GI50 with HOP-92 NSCLC is 47.9 µM; in the assay on SF-295 CNS, 32.2 µM; with 786-0 renal, 36.8 µM; in the assay on SK-OV-3 ovarian it was 46.5 µM; in the assay with SN12C renal, 44.8 µM; in the assay with U251 CNS it was 35.7 µM. Besides, the TGI in the assay with HOP-92 NSCLC is 110 µM; with HS 578T breast it was more than 76 µM; with SF-295 CNS, more than 116 µM; in the assay with SNB-75 CNS it was 69.5 µM; in the assay with 786-0 renal it was more than 125 µM; with SK-OV-3 ovarian it was more than 122 µM. For the same compound, the TGI was more than 125 µM in the assay with SN12C renal, more than 125 µM in the assay with MALME-3M melanoma, 121 µM in the assay with U251 CNS and more than 112 µM in the assay on OVCAR-5 ovarian.

As for `COC1C(CO)OC(n2c3ccccc3c3c4c(c5c6ccccc6[nH]c5c32)C(=O)NC4=O)C(O)C1OC(=O)C(N)CCCCN` (centres undefined), the GI50 was 1.54 µM in the assay with HOP-92 NSCLC; 1.93 µM with HS 578T breast; 1.26 µM in the assay on SF-295 CNS; 3.62 µM in the assay with SNB-75 CNS; 0.653 µM in the assay on 786-0 renal; 2.11 µM in the assay with SK-OV-3 ovarian. In addition, the GI50 is 0.405 µM in the assay on SN12C renal, 0.11 µM in the assay on MALME-3M melanoma, 0.282 µM in the assay with U251 CNS and 3.12 µM in the assay with OVCAR-5 ovarian. The TGI in the assay with HOP-92 NSCLC is 12.9 µM; in the assay on HS 578T breast, 12.2 µM; in the assay with SF-295 CNS, 7.43 µM; with SNB-75 CNS, more than 22.8 µM; in the assay on 786-0 renal, more than 21.5 µM; in the assay on SK-OV-3 ovarian, more than 15.5 µM. The TGI in the assay on SN12C renal was 2.36 µM; with MALME-3M melanoma, 0.946 µM; in the assay on U251 CNS it was more than 11.5 µM; in the assay with OVCAR-5 ovarian it was more than 50 µM.

On to `CCCCCCN1C(=O)CN=C1Nc1ccc2cc3ccc(NC4=NCC(=O)N4CCCCCC)cc3nc2c1`, for which the GI50 is 1.63 µM with HOP-92 NSCLC; 2.08 µM in the assay on HS 578T breast; 1.82 µM in the assay on SF-295 CNS; 2.15 µM with SNB-75 CNS; 1.56 µM with 786-0 renal; 11.6 µM in the assay on SK-OV-3 ovarian. Besides, the GI50 in the assay on SN12C renal was 1.75 µM; in the assay with MALME-3M melanoma it was 1.71 µM; in the assay on U251 CNS, 1.63 µM; in the assay on OVCAR-5 ovarian, 1.81 µM. Moreover, the TGI in the assay on HOP-92 NSCLC came to 3.78 µM; in the assay with HS 578T breast, 5.66 µM; in the assay with SF-295 CNS it was 3.82 µM; in the assay with SNB-75 CNS, 12.4 µM; with 786-0 renal, 2.95 µM; with SK-OV-3 ovarian, 28.9 µM. The TGI with SN12C renal was found to be 3.45 µM; in the assay with MALME-3M melanoma, 3.59 µM; with U251 CNS it was 3.13 µM; in the assay on OVCAR-5 ovarian, 4.12 µM.

On to `O=c1c2cc(F)ccc2sc2c(NCCCN3CCCC3)nc3ccccc3c12`, for which the GI50 with HOP-92 NSCLC is 1.13 µM; in the assay on HS 578T breast, 2.18 µM; with SF-295 CNS, 2.1 µM; in the assay on SNB-75 CNS, 1.43 µM; with 786-0 renal, 1.61 µM; in the assay with SK-OV-3 ovarian it was 2.35 µM. In addition, the GI50 in the assay on SN12C renal is 1.97 µM; with MALME-3M melanoma it was 1.77 µM; in the assay with U251 CNS, 1.81 µM; with OVCAR-5 ovarian, 1.85 µM. Besides, the TGI in the assay on HOP-92 NSCLC is 3.85 µM; in the assay with HS 578T breast it was 6.22 µM; in the assay with SF-295 CNS it was 4.39 µM; with SNB-75 CNS it was 3.14 µM; in the assay on 786-0 renal, 3.08 µM; in the assay with SK-OV-3 ovarian, 7.79 µM. Also, the TGI with SN12C renal came to 4.6 µM; with MALME-3M melanoma, 3.37 µM; with U251 CNS, 3.62 µM; with OVCAR-5 ovarian, 3.74 µM.

Regarding `CCc1nc(N)nc(N)c1-c1ccc([N+](=O)[O-])c(Cl)c1`, the TGI is more than 100 µM in the assay with HOP-92 NSCLC; more than 100 µM in the assay with HS 578T breast; more than 100 µM in the assay with SF-295 CNS; more than 92.5 µM with SNB-75 CNS; more than 100 µM in the assay on 786-0 renal; more than 100 µM in the assay with SK-OV-3 ovarian. In addition, the TGI with SN12C renal, in the assay on MALME-3M melanoma, in the assay with U251 CNS and in the assay with OVCAR-5 ovarian was more than 100 µM throughout.

Values taken from PubChem BioAssay (NCI).
